Assay results taken from article PMC12339163, “Combining Plant Bioactives With Antibiotics for Enhanced Antibiofilm Activity Against Uropathogenic Staphylococcus spp. and Cytotoxicity Evaluation” (Advances in Pharmacological and Pharmaceutical Sciences, 2025).
Values after ≈ are worked out from the molar mass of the structure shown. Like-named read-outs stand apart in the source and are kept apart here.

How the values were obtained:
S. aureus = test: MIC and MBC, broth microdilution; format: cell-based, Staphylococcus aureus; settings: Staphylococcus aureus, geometric mean, S. aureus (n = 3); for MBC: antibiotics, read-out: MBC; for MIC: read-out: MIC
Procedure: Seven clinical isolates of Staphylococcus spp. including 2 S. aureus, 3 S. saprophyticus, and 2 S. epidermidis were used. They were isolated from urine samples in our previous study. Two reference strains (S. aureus ATCC1026 and S. epidermidis ATCC35984) obtained from the American Type Culture Collection were also included. They were kept in the mixture of glycerol and Mueller Hinton Broth (MHB) (1:1) at −20°C, and the activation was achieved using the streak technique on Mueller Hinton agar (MHA) medium.
The MICs of ATBs and NPs were determined by the broth microdilution method as previously described. NPs and ATBs were, respectively, prepared at 4096 µg/mL and 512 µg/mL and serially diluted twofold with MHB in a 96-well microplate at a volume of 100 µL. Then, the wells were filled with 100 µL of inoculum (1.5 × 10^6 CFU/mL) to give final concentrations ranging from 1024 µg/mL to 0.5 µg/mL and 128 µg/mL to 0.062 µg/mL of NPs and ATBs, respectively. The microplates were incubated for 24 h at 37°C. Wells containing only bacterial inoculum were used as the negative control. After incubation, a volume of 40 µL of INT solution (0.2 mg/mL) was added to each well, and the microplate was incubated at 37°C for 30 min. Viable bacteria cells change the yellow dye of INT to a pink color. The MIC was considered as the lowest concentration of the sample at which there was no change in the coloration of the medium, corresponding to the complete inhibition of microbial growth.
All tests were performed in triplicate.

[1] = test system: planktonic cells of Staphylococcus aureus; test: Checkerboard combination assay, planktonic cells; format: cell-based; settings: Staphylococcus aureus, S. aureus, mean, read-out: MIC alone, ATB
Procedure: (§1) The checkerboard assay, as previously described, was used for the determination of the fractional inhibitory concentration index (FICI). Briefly, 50 µL of MHB was distributed into each well of a 96-well microplate. ATBs were serially diluted along the abscissa, and NPs were serially diluted along the ordinate. Then, 100 µL of bacterial inoculum (1.5 × 10^6 CFU/mL) was added to each well and incubated at 37°C for 24 h. The final concentration ranged from 0.125 to 128 µg/mL for ATBs and 4–512 µg/mL for NPs. After incubation, a volume of 40 µL of INT solution (0.2 mg/mL) was added to each well, and the microplate was incubated at 37°C for 30 min. The wells containing bacterial inoculum and MHB were used as a positive control, while wells containing only MHB + 1% glucose were used as a negative control and used as a blank. Viable bacteria cells change the yellow dye of INT to a pink color. The MICs were considered to be the lowest NP concentrations that prevented the color change medium. Subsequently, the FICI was calculated according to the formula FICI = (MIC of the ATBs in combination/MIC of the ATBs alone) + (MIC of a natural substance in combination/MIC of the natural substance alone). FICI values were interpreted as follows: synergy when FICI ≤ 0.5; additive when 0.5 < FICI ≤ 1; indifference when 1 < FICI ≤ 4; and antagonism when FICI > 4.

[2] = test system: planktonic cells of Staphylococcus epidermidis; test: Checkerboard combination assay, planktonic cells; format: cell-based; settings: antibiotic alone; planktonic S. epidermidis; mean MIC
Procedure: as §1

[3] = test system: planktonic cells of Staphylococcus saprophyticus; test: Checkerboard combination assay, planktonic cells; format: cell-based; settings: Staphylococcus saprophyticus, S. saprophyticus, mean, read-out: MIC alone, ATB
Procedure: as §1

[4] = test system: Staphylococcus aureus biofilm; test: Checkerboard combination assay, biofilm eradication; format: cell-based
In short: (§2)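 Biofilms preformed for 24 h were washed and exposed to antibiotics (0.0625–128 µg/mL) combined with NPs (4–512 µg/mL) for 24 h at 37°C in checkerboard format. Viability was read by MTT reduction to set MBEC, and FICI was calculated for the combination.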

[5] = test system: Staphylococcus saprophyticus biofilm; test: as above; format: cell-based
In short: as §2

Raw 264.7 macrophages = test: Cytotoxicity, MTT assay; format: cell-based; settings: Raw 264.7, MTT
Procedure: (§3) Two cell lines, including Raw 264.7 macrophages and the urinary epithelial cell line UROtsa obtained from the American Type Culture Collection (Rockville, MD, USA), were used. They were cultured in Dulbecco's modified Eagle's medium (DMEM), which was supplemented with 10% fetal bovine serum (FBS) and 1% penicillin, streptomycin, and fungizone (PSF). They were then grown at 37°C in a humidified environment containing 5% CO2.
(§4) The cytotoxicity of the selected synergistic combinations, as well as the individual constituents of combinations, against the abovementioned cell lines was performed by the MTT assay as previously described. Briefly, cells from each line were harvested in the logarithmic phase using trypsin (0.05% trypsin, 0.02% EDTA in PBS). Cell suspension was diluted with an appropriate growth medium to obtain a cell density of 10^4 cells/well. A 100 µL aliquot of each suspension was seeded into 96-well cell culture plates and incubated at 37°C in an atmosphere of 5% CO2 and 95% relative humidity. After 24 h of incubation, 100 µL of samples (ATBs and NPs) at concentrations varying from 0.01, 0.1, 1, 10, 100, and 1000, as well as the synergistic combinations (C1 to C5), was added to the wells containing the cells. Doxorubicin was used as a positive control. Appropriate controls with an equivalent concentration of DMSO were also included. Plates were incubated for 48 h, then the medium in each well was aspirated, and MTT solution (2 mg/mL in PBS) was diluted 1:10 with fresh medium and added to each well, and the plates were further incubated at 37°C for 4 h. Absorbance was measured on a BioTek microplate reader at 570 nm. The percentage of cell viability was calculated by comparing treated and untreated cells using the equation [39]:(3) cell viability %=ODtest/ODcontrol×100.
(§5) Then, the IC50 values of the samples having shown at least 50% inhibition were calculated by plotting the percentage of inhibition against the concentrations.

[6] = test system: UROtsa urinary epithelial cells; test: Cytotoxicity, MTT assay; format: cell-based; settings: 48 h
Procedure: as §3, §4, §5

[7] = S. aureus biofilm eradication, antibiotic alone, mean MBEC
[8] = S. saprophyticus biofilm eradication, antibiotic alone, mean MBEC
[9] = Epithelial cell, read-out: IC50

SMILES	MBC (S. aureus)	MIC (S. aureus)	MIC ([1]; 24 h)	MIC [1]	MIC alone, ATB [2]	MIC ([3]; 24 h)	MIC [3]	MBEC Alone ATB [4, 7]	MBEC Alone ATB [5, 8]	MBEC Alone ATB ([5]; S. saprophyticus, biofilm eradication, mean)	IC50 (Raw 264.7 macrophages; 48 h)	IC50 [6]	IC50 [6, 9]	MBEC Alone ATB ([4]; S. aureus, biofilm eradication, mean)	IC50 (Raw 264.7 macrophages; Mus musculus, RAW264.7, 48 h, read-out: IC50)
C=CC1=C(C(=O)O)N2C(=O)[C@@H](NC(=O)/C(=N\OCC(=O)O)c3csc(N)n3)[C@H]2SC1 [Cefixime, cefixime]	> 128 µg/mL	213 µg/mL (≈ 470 µM)	213 µg/mL	213 µg/mL	107 µg/mL	192 µg/mL	192 µg/mL	42.66 µg/mL	48 µg/mL	48 µg/mL	473.83 µg/mL	— (IC50 > 1000 µg/mL)	> 1000 µg/mL	–	–
NCC[C@H](O)C(=O)N[C@@H]1C[C@H](N)[C@@H](O[C@H]2O[C@H](CN)[C@@H](O)[C@H](O)[C@H]2O)[C@H](O)[C@H]1O[C@H]1O[C@H](CO)[C@@H](O)[C@H](N)[C@H]1O [Amikacin, amikacin]	> 128 µg/mL	4.33 µg/mL (≈ 7.39 µM)	4.33 µg/mL	4.33 µg/mL	1.16 µg/mL	22 µg/mL	22 µg/mL	13.33 µg/mL	13.33 µg/mL	–	— (IC50 > 1000 µg/mL)	— (IC50 > 1000 µg/mL)	> 1000 µg/mL	13.33 µg/mL	> 1000 µg/mL
